Measured values reported in US20260308535A1, “ANTI-CANCER TREATMENTS AND METHODS OF USE THEREOF” (Memorial Sloan-Kettering Cancer Center, priority 2023, published 2026).

T1: IDH2 R140Q (Homo sapiens, UniProt P48735, R140Q)
T1 sequence (P48735 40-452 R140Q): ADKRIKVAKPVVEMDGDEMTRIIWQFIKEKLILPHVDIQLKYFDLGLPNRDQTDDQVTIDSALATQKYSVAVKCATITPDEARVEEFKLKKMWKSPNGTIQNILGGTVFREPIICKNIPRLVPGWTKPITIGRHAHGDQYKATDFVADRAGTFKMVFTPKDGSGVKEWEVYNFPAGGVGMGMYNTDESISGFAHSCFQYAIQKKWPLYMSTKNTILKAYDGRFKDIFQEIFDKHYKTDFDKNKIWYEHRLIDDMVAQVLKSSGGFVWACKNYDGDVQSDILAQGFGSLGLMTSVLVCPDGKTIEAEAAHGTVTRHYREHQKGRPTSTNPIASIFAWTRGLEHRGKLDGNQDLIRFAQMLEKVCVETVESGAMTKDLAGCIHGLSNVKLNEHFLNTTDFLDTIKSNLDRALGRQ


Assays:
IDH2 R140Q [1] = biological target: T1, IDH2 R140Q; settings: 10 μM compound; NADH 0.5 mM; αKG 10 mM; enzyme 7.5 μg/ml; 37° C.
Protocol: Briefly, enzyme reactions were set up in 384-well plate format with purified enzyme (7.5 μg/ml), NADH (0.5 mM), αKG (10 mM; added last to start reaction), and HEPES buffer. Compounds were screened using a concentration of 10 μM in DMSO. No enzyme groups were used for each condition as negative controls. […] Reactions were incubated at 37° C., and absorbance at 340 nm was monitored using an EnVision plate reader at 30-minute intervals. Results were analyzed using KNIME. Briefly, concatenated spreadsheets containing absorbance metadata (well number, plate information, absorbance read outs etc.) were merged. For baseline correction, the “no enzyme with drug” values (N1: no enzyme negative control with drug) for each condition were subtracted from the “plus enzyme with drug” values (S: enzyme with drug) for each condition. Then the baseline corrected enzyme values (S−N1) were normalized to the “no enzyme control” values (N2: no enzyme control with DMSO) to calculate robust (median based) percent of “no enzyme control” (POC) and Z-scores. […] To confirm hits, enzyme assays were carried out in the same as screening but in a 96-well plate format with 10 μM of each hit, and purified enzyme (7.5 μg/ml), NADH (0.5 mM), and αKG (10 mM). Absorbance was read at 340 nm every 15 sec for 3 hr.

IDH2 R172X = test: Effect of EDBN on IDH2 R172X mutations; assay type: biochemical; settings: FIG. 50
IDH2 R140Q [2] = biological target: T1, IDH2 R140Q; test: NADH-dependent reduction of αKG to 2HG, RQ; settings: role: cofactor; RQ homodimers; NADH 0.25 mM; αKG 5.0 mM
IDH2 R140Q [3] = settings: cited from earlier work
[4] = tested on: Ba/F3 leukemia cells with IDH2 allelic configurations; assay type: cell-based, mouse
Protocol: Panel A Schematic depicting IDH2 dimers retrovirally transduced into Ba/F3 cells. ‘Pre’received IDH2 WT-mCherry plus IDH2 RQ-YFP; ‘Trans’ received IDH2 RQ-YFP plus IDH2 IM-GFP; ‘Cis’ received IDH2 WT-mCherry plus IDH2 RQ/IM-GFP. […] Panel C Competitive growth of ‘Pre’, ‘Trans’, and ‘Cis’ cells mixed at a 1:1:1 ratio and cultured with vehicle (DMSO) or the mutant IDH2 inhibitor enasidenib (100 nM). Changes in the percentage of ‘Pre’, ‘Trans’, and ‘Cis’ cells were assessed weekly by flow cytometry (n=3). […] Results throughout figure are representative of >3 independent experiments. Data are mean±SEM unless otherwise specified. **P<0.01, ***P<0.001, ****P<0.0001.
Cells harboring these distinct allelic configurations were marked with different combinations of fluorescent proteins (FIG. 1 panel B).

[5] = substrate: O=C(O)CCC(=O)C(=O)O; test: NADPH-dependent 2HG production, Michaelis-Menten kinetics, active-site RQ homodimers; assay type: biochemical, human; settings: other: role: substrate, cofactor NADPH 0.33 mM, enzyme 7.5 μg/ml, 37.0 °C

Molecule	Z-Score, Screen #1 (IDH2 R140Q [1])	Z-Score, Screen #2 (IDH2 R140Q [1])	further results
CC(=O)O[C@@H]1C[C@H]2C(C)(C)C(=O)C=C[C@]2(C)[C@H]2CC[C@]3(C)C(=CC(=O)O[C@H]3c3ccoc3)[C@@]21C [Deoxygedunin]	7.959	7.554	–
CC(=O)O[C@@H]1C[C@H]2C(C)(C)C(=O)CC[C@]2(C)[C@H]2CC[C@@]3(C)[C@H](c4ccoc4)OC(=O)[C@H]4O[C@]43[C@@]21C [Dihydrogedunin]	9.578	4.452	–
CCc1ccc2[nH]c3nc(C)cc(C)c3c(=O)c2c1 [EDBN, 7-ethyl-2,4-dimethylbenzo[b][1,8]naphthyridin-5(10H)-one]	–	–	activity on IDH2 R172X mutations (IDH2 R172X): also works on IDH2 R172X mutations
O=c1c(O)c(-c2ccc(O)c(O)c2)oc2c(O)c(O)cc(O)c12 [Gossypetin]	9.982	13.35	–
COC1=C(OC)C(=O)C(CCCCCCCCCCO)=C(C)C1=O [Idebenone]	11.33	8.499	–
NC(=O)C1=CN([C@@H]2O[C@H](COP(=O)(O)OP(=O)(O)OC[C@H]3O[C@@H](n4cnc5c(N)ncnc54)[C@H](O)[C@@H]3O)[C@@H](O)[C@H]2O)C=CC1 [NADH, nicotinamide adenine dinucleotide]	–	–	use of NADH to reduce αKG (IDH2 R140Q [2]): no ability to use NADH to reduce αKG
CC(C)(O)CNc1nc(Nc2ccnc(C(F)(F)F)c2)nc(-c2cccc(C(F)(F)F)n2)n1 [enasidenib]	–	–	effect of allosteric binding on active site conformation (IDH2 R140Q [3]): can stabilize inhibitory open conformation; competitive growth of 'Cis' cells [4]: selective growth disadvantage; competitive growth of 'Trans' cells [4]: selectively grew out in the presence of enasidenib
IDH2 R140Q (RQ) homodimers (Homo sapiens; R140Q) (protein) ADKRIKVAKPVVEMDGDEMTRIIWQFIKEKLILPHVDIQLKYFDLGLPNRDQTDDQVTIDSALATQKYSVAVKCATITPDEARVEEFKLKKMWKSPNGTIQNILGGTVFREPIICKNIPRLVPGWTKPITIGRHAHGDQYKATDFVADRAGTFKMVFTPKDGSGVKEWEVYNFPAGGVGMGMYNTDESISGFAHSCFQYAIQKKWPLYMSTKNTILKAYDGRFKDIFQEIFDKHYKTDFDKNKIWYEHRLIDDMVAQVLKSSGGFVWACKNYDGDVQSDILAQGFGSLGLMTSVLVCPDGKTIEAEAAHGTVTRHYREHQKGRPTSTNPIASIFAWTRGLEHRGKLDGNQDLIRFAQMLEKVCVETVESGAMTKDLAGCIHGLSNVKLNEHFLNTTDFLDTIKSNLDRALGRQ	–	–	Km [5]: 1740 µM; Vmax [5]: 6.95 µM/min; kcat/Km [5]: 2.14e+06 M⁻¹ s⁻¹
